Source: patent US20230277630A1, “METHODS AND COMPOSITIONS FOR TREATING AMYOTROPHIC LATERAL SCLEROSIS” (Amylyx Pharmaceuticals, Inc., priority 2022, published 2023)
Where a name gives a salt, the structure may show the parent alone.

Assays:
human hepatocytes = conditions: 72 h, 100 µM
Experimental: Plateable and inducible cryopreserved human hepatocytes were thawed and isolated in human hepatocyte thawing medium. […] After attachment (4 hours), the medium was changed to fresh hepatocyte culture medium for overnight cell recovery. […] A positive control (100 μM chlorpromazine) was treated in parallel. […] The absorbance of formazan, which is proportional to the number of viable cells, was measured spectrophotometrically using the CellTiter 96® AQueous One Solution Cell Proliferation Assay (MTS).

[1] = CYP reaction phenotyping: CYP control (negative control without CYP enzymes); conditions: pH 7.4
Experimental: The reaction was initiated by the addition of NADPH, followed by incubation at 37° C.

hrCYP3A4 = hrCYP3A4 (Homo sapiens, UniProt P08684); assay: Formation of CYP probe metabolites in hrCYPs; assay type: in vitro ADME; conditions: Formation rate(hrCYP)/Formation rate(Negative Control)
Chain of hrCYP3A4 (P08684 whole entry): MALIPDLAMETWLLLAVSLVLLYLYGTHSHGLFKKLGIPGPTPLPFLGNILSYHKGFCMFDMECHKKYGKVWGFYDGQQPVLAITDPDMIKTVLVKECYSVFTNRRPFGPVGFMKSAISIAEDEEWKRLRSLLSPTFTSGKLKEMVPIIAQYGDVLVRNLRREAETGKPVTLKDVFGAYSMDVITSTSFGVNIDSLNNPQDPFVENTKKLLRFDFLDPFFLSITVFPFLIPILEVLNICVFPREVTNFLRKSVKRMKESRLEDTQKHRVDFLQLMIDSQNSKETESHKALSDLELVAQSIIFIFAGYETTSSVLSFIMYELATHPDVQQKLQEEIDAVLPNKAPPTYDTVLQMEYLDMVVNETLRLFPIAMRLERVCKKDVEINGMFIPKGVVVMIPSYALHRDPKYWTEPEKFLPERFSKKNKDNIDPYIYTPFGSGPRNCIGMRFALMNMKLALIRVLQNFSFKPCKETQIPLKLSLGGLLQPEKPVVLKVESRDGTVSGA

CYP2C8 = target: T1, CYP2C8 (Homo sapiens, UniProt P10632); assay: Inhibition of CYP2C8 activity in human liver microsomes; assay type: in vitro ADME; design: co-incubated with pooled HLM (0.25 mg protein/mL); from tissue; host or cells: pooled human liver microsomes
T1 sequence (P10632 1-490): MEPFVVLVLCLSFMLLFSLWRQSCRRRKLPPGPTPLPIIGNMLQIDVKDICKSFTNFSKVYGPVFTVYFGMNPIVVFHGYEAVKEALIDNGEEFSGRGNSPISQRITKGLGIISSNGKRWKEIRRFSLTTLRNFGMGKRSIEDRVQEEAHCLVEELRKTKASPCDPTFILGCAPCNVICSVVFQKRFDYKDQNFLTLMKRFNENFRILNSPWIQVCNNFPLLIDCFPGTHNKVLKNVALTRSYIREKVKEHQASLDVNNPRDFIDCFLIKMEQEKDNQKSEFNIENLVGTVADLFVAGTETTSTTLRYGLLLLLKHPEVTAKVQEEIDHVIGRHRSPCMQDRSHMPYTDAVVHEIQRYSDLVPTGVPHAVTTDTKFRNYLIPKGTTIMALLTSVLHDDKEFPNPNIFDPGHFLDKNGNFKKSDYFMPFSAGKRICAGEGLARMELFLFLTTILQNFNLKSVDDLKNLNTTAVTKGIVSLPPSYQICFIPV
Experimental: […]. […] Negative (vehicle) controls were conducted without TA.

OATP1B3 = target: T2, OATP1B3 (Homo sapiens, UniProt Q9NPD5); assay: OATP1B3 inhibitor (IC50) assessment, atorvastatin uptake in transfected HEK cells
T2 sequence (Q9NPD5 1-702): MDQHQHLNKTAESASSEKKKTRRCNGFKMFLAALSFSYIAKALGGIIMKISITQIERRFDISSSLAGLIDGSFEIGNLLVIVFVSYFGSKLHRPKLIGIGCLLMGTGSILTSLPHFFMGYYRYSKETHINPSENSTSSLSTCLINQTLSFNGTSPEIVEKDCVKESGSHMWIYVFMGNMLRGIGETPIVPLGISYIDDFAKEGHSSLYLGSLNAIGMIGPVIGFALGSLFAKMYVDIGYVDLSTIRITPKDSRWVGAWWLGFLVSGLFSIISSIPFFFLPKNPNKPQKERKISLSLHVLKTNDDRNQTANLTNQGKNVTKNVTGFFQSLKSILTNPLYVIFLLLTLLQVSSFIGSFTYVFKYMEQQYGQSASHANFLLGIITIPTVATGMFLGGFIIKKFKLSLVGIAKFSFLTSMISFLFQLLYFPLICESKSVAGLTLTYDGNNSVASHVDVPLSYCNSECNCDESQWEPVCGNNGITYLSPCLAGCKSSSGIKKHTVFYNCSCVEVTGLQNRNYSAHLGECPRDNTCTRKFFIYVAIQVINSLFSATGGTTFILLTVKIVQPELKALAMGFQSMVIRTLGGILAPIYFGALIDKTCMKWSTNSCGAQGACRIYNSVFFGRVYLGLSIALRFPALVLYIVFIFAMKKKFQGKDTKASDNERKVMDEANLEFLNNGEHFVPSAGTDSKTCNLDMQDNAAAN

OATP1B1 = target: T3, OATP1B1 (Homo sapiens, UniProt Q9Y6L6); assay: OATP1B1 inhibitor (IC50) assessment, atorvastatin uptake in transfected HEK cells
T3 sequence (Q9Y6L6 1-691): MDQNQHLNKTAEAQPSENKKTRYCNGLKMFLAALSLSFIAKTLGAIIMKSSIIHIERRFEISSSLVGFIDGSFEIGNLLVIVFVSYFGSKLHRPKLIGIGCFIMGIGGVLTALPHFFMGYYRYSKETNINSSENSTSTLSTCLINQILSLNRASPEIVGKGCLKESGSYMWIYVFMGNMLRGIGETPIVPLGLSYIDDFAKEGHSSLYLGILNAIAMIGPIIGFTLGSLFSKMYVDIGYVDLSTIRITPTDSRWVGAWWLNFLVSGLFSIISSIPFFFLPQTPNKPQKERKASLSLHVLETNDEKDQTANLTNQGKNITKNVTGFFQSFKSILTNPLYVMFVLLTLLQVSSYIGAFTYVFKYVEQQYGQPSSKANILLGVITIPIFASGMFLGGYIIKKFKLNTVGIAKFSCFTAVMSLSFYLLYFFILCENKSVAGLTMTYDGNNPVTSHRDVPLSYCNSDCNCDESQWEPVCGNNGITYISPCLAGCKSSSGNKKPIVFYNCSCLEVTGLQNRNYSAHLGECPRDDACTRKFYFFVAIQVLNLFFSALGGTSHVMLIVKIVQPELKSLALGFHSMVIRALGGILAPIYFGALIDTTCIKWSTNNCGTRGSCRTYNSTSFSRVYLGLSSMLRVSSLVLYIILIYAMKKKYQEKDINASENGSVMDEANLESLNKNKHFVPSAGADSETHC

CYP2C9 = CYP2C9 (Homo sapiens, UniProt P11712); assay: Inhibition of CYP2C9 activity in human liver microsomes
Chain of CYP2C9 (P11712 whole entry): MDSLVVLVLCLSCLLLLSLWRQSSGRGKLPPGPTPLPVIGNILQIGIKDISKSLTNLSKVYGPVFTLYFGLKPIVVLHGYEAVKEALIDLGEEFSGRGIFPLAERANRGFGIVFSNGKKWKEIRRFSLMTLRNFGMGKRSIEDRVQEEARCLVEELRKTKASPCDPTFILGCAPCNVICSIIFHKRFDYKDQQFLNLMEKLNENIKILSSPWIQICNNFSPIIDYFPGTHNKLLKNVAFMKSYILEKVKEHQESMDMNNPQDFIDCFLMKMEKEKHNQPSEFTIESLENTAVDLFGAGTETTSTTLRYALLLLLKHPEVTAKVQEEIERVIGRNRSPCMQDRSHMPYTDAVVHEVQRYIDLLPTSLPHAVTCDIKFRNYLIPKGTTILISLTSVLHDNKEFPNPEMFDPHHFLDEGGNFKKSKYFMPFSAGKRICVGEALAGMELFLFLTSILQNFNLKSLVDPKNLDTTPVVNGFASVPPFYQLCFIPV
Experimental: CYP enzyme activity was determined by measuring the formation of each CYP probe metabolite by LC-MS/MS.
The total organic solvent content in the final incubation was less than 1% (DMSO ≤0.1%, other organic solvent ≤1%). […] The reaction was initiated by the addition of NADPH, followed by incubation at 37° C. for 10-30 minutes depending on the individual CYP isoform. The reaction was terminated by the addition of two volumes of ice-cold acetonitrile (ACN) containing an internal standard (IS, stable isotope-labeled CYP probe metabolite). Negative (vehicle) controls were conducted without TA. Positive controls were performed in parallel using known CYP inhibitors. […] The formation of individual CYP probe metabolites was determined by LC-MS/MS.
The enzyme activity was expressed as the peak area ratio of probe metabolite to IS, measured by LC-MS/MS.

[2] = design: species or system male Sprague Dawley rats; conditions: male, Sprague Dawley, rat, in vivo, po
Experimental: Total urine recovery data for Tenofovir, TDF, and PB was calculated for the 24 hour collection period on Days 1 and 5. […] The reported urine recovery data included amount recovered (ng) and percent recovered (%) for […]. Individual and mean Tenofovir, TDF, and PB urine recovery data were presented with SD, reported to three significant figures, and CV %, reported to one decimal place.

[3] = rat, in vivo
CYP2B6 [4] = target: T4, CYP2B6 (Homo sapiens, UniProt P20813); assay: Inhibition of CYP2B6 activity in human liver microsomes; assay type: in vitro ADME; design: co-incubated with pooled HLM (0.25 mg protein/mL); from tissue; host or cells: pooled human liver microsomes
T4 sequence (P20813 1-491): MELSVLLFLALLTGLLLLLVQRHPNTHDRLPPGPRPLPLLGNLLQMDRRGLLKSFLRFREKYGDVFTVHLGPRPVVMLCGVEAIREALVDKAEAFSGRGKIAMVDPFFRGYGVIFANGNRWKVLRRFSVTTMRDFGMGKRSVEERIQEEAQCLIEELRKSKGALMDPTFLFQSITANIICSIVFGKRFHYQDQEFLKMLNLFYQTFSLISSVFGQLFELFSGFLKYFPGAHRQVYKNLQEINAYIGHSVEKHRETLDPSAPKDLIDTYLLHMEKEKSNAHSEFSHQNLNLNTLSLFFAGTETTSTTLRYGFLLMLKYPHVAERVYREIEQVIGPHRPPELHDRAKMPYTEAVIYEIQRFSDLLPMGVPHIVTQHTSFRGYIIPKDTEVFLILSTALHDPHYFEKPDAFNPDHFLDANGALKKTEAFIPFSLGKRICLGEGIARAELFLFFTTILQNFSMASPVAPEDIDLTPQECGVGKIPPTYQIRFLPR

CYP2B6 [5] = target: T4, CYP2B6; assay: Time-dependent inhibition (TDI) of CYP in HLM, 30 min pre-incubation ±NADPH; conditions: microsomes, pH 7.4, % of Control Enzyme Activity
Experimental: CYP TDI was evaluated by a 30-minute pre-incubation of the TA with HLM in the presence and absence of NADPH followed by the CYP enzyme activity assay. […] The total organic solvent content in the final incubation was less than 1% (DMSO ≤0.1%, other organic solvent ≤1%). The CYP reactions were initiated by adding an individual CYP probe substrate with (when NADPH was not added in the pre-incubation step) or without (when NADPH was added in the pre-incubation step) the addition of NADPH (1 mM). The reaction mixture was incubated at 37° C. for 10-30 minutes depending on the individual CYP isoform (Table 24). The reaction was terminated with ice-cold acetonitrile (ACN) containing an internal standard (IS, stable isotope-labeled CYP probe metabolite). Negative (vehicle) controls were conducted using the incubation mixture without the TA. Positive controls were performed in parallel using known CYP time-dependent inhibitors. […] The formation of individual CYP probe metabolites was determined by LC-MS/MS.
The enzyme activity was expressed as the peak area ratio of CYP probe metabolite to IS, measured by LC-MS/MS.

CN(C)CCCN1c2ccccc2Sc2ccc(Cl)cc21 [Chlorpromazine, chlorpromazine]
% MTS Absorbance Relative to Vehicle Control (human hepatocytes): 24.3%
Formazan Absorbance (n = 3) Mean (human hepatocytes): 0.160

Cc1ncc2n1-c1ccc(Cl)cc1C(c1ccccc1F)=NC2 [Midazolam, reference compound]
Formation Rate [1]: 0 pmol metabolite/min/mg Supersome protein
Measured Metabolite [1]: 0 µM
Formation Rate Ratio (hrCYP3A4): >>2

CC(C)(O)c1ccccc1CC[C@@H](SCC1(CC(=O)O)CC1)c1cccc(/C=C/c2ccc3ccc(Cl)cc3n2)c1 [Montelukast]
activity at 3.33 μM (CYP2C8; human, microsomes, pH 7.4): 14.6%
activity at 10 μM (CYP2C8; human, microsomes, pH 7.4): 5.31%
IC50 (CYP2C8; positive inhibitor, HLM): 517 nM

CO[C@H]1/C=C/O[C@@]2(C)Oc3c(C)c([O-])c4c(O)c(cc(O)c4c3C2=O)NC(=O)/C(C)=C\C=C\[C@H](C)[C@H](O)[C@@H](C)[C@@H](O)[C@@H](C)[C@H](OC(C)=O)[C@@H]1C.[Na+] [RSV, rifamycin SV]
Net Influx Rate of Atorvastatin (OATP1B3) (OATP1B3; […] Atorvastatin + 10 μM RSV): 0.0551 pmol/mgprotein/minute
Percentage Inhibition of OATP1B3 (OATP1B3; […] Atorvastatin + 10 μM RSV): 98.1%
inhibition of atorvastatin uptake in OATP1B3-transfected cells (OATP1B3; known inhibitor): 98.1%
Net Influx Rate of Atorvastatin (OATP1B1) (OATP1B1; […] Atorvastatin + 10 μM RSV): 0.184 pmol/mg protein/minute
Percentage Inhibition of OATP1B1 (OATP1B1; […] Atorvastatin + 10 μM RSV): 96.7%
inhibition of atorvastatin uptake in OATP1B1-transfected cells (OATP1B1; known inhibitor): 96.7%

Nc1ccc(S(=O)(=O)Nc2ccnn2-c2ccccc2)cc1 [Sulfaphenazole]
% of Control Enzyme Activity (n = 3) Average (CYP2C9; Sulfaphenazole 3.33 μM): 23.8%
% of Control Enzyme Activity (n = 3) Average (CYP2C9; Sulfaphenazole 10.0 μM): 14.9%

CC(C)OC(=O)OCOP(=O)(CO[C@H](C)Cn1cnc2c(N)ncnc21)OCOC(=O)OC(C)C [TDF, Tenofovir Disoproxil Fumarate]
Urine concentrations [2]: Urine concentrations for PB analysis in all animals on Day 1, for TUDCA analysis in all animals on Days 1 and 5, and for TDF analysis in two animals on Day 1 and one animal on Day 5 were BLQ (<20 ng/mL) so no recovery data was calculated.

C[C@H](Cn1cnc2c(N)ncnc21)OCP(=O)(O)O [Tenofovir]
individual Tmax [3]: 15 min

C[C@]12CC[C@H]3[C@@H](CCC4=CC(=O)CC[C@@]43C)[C@@H]1CC[C@@H]2O [Testosterone, reference compound]
Formation Rate [1]: 0 pmol metabolite/min/mg Supersome protein
Measured Metabolite [1]: 0 µM
Formation Rate Ratio (hrCYP3A4): >>2

S=P(N1CC1)(N1CC1)N1CC1 [Thio-TEPA]
% of Control Enzyme Activity (n = 3) Average (CYP2B6 [4]; Thio-TEPA 3.33 μM): 66.9%
% of Control Enzyme Activity (n = 3) Average (CYP2B6 [4]; Thio-TEPA 10.0 μM): 44.1%
% of Control Enzyme Activity (n = 3) Average (CYP2B6 [4]; Thio-TEPA 30.0 μM): 26.7%
activity at 30 min, 3.33 µM (CYP2B6 [5]; +NADPH 30 min, 3.33 μM): 35.5%
activity at 30 min, 10 µM (CYP2B6 [5]; +NADPH 30 min): 18.3%
activity at 30 min, 30 µM (CYP2B6 [5]; +NADPH 30 min): 11.6%
activity at 30 min, 10 µM (CYP2B6 [5]; −NADPH 30 min): 76.7%
activity at 30 min, 30 µM (CYP2B6 [5]; −NADPH 30 min): 54.8%
